Experimental data reported in patent publication US20100121105A1, “Composition and Method of synthesizing a biomolecule and its therapeutics applications” (priority 2009, published 2010).
Read-outs that look alike come from different tables or passages of the source.

Legend:
volunteers [1] = experiment: Oral administration of ex-vivo synthesized J-Factor to 11 volunteers, physical changes observed; settings: 0.5 mg per 10 days (=1.5 mg/month), observed in each volunteer
Description: (§1) In one of the embodiment of the present invention L-arginine was chemically converted into J-Factor ex-vivo. Thus converted/synthetic produced ex-vivo J-Factor was orally administrated to a small group of 11 volunteers. Each volunteers were given 0.5 mg per 10 days (=1.5 mg/month) and photographs were taken in each case at the beginning and end of the trial to record the changes in their faces and heads.
These changes indicate that ex-vivo synthesized J-Factor functioned like GH and autocrine-paracrine IGF-1 and also stimulated IGF-1 production.

volunteers [2] = experiment: Comparison of synthetic J-Factor and biosynthetic GH: complications, diabetogenicity, antigenicity; assay type: in vivo
Description: as §1
In fact all of the above mentioned changes help in preventing or limiting the aging signs. The advantage of using ex-vivo synthesized J-Factor of the present invention when compared to biosynthetic GH is shown in the comparative table below: […]

volunteers [3] = settings: biosynthetic GH, intra muscular administration, 3 time a week; stated as common knowledge; cited from earlier work
[4] = comparative table, oral administration 3 times a month, no test described

| Compound | Eye's central vision (volunteers [1]) | Fatty tissue e.g. in abdomen (volunteers [1]) | Hair growth (volunteers [1]) | Muscular hypertrophy (volunteers [1]) | Tone and color of facial skin (volunteers [1]) | Complications (Joint swelling, Carpal tunnel syndrome, Joint pain) (volunteers [2]; 11 volunteers, oral administration, 3 times a month) | Antigenicity (volunteers [2]; [4]) | Diabetogenicity (volunteers [2]; [4]) | Antigenicity (volunteers [3]) | Complications (volunteers [3]) | Diabetogenicity (volunteers [3]) |
| --- | --- | --- | --- | --- | --- | --- | --- | --- | --- | --- | --- |
| NC(N)=NCCC[C@H](N)C(=O)O [J-Factor, L-2-amino-5-diaminomethyleneamino-pentanoic acid] | Improvement in eye's central vision | A decrease in fatty tissue | Hair growth | Muscular hypertrophy | Improved tone and color of facial skin | showed no complications such as Joint | Non-antigenic | Non-diabetogenic | – | – | – |
| Biosynthetic GH: biosynthetic Growth Hormone, comparator in the table | – | – | – | – | – | – | – | – | Antigenic | Joint swelling Carpal tunnel | Diabetogenic |
